Where a name gives a salt, the structure may show the parent alone.
Experiments:
Type in all cases: in vivo
[1] = acute toxicity (LD50) in adult laboratory rats; settings: rat, in vivo, po, adult rats, observation period of 14 days
Experimental: (§1) The acute toxicities of the compounds (LD50) were determined in adult laboratory rats from the percentage of animals which died after administration of varying doses within an observation period of 14 days [see J. Pharmacol. exper. Therap. 96, 99 1949)].

[2] = system: kaolin-induced edema in the hind paw of rats; experiment: antiexudative action against the kaolin-induced edema in the hind paw of rats (Hillebrecht); settings: Rattus norvegicus, po, dose which produces a 35% reduction in the edematous swelling
Experimental: The antiphlogistic activity of the compounds of the present invention was ascertained by the standard test method Hillebrecht described in Arzneimittelforschung 4, 607-614 (1954), i.e. in terms of the antiexudative action against the kaolin-induced edema in the hind paw of rats. The measurements were carried out by the method of Doepfner and Cerletti, Int. Arch. Allergy and Appl. Immunology 12, 89-97 (1958). The data thus obtained were plotted on a dose-activity graph, and from the resulting curve the dose which produces a 35% reduction in the edematons swelling (ED35) was graphically calculated for each compound.

[3] = system: adult laboratory rats; experiment: acute toxicity (LD50) in adult laboratory rats; settings: p.o., rats, printed in parentheses under the LD50 bound; observation period of 14 days
Experimental: as §1

SMILES | LD50 at 336 h [1] | ED35 [2] | animals died [3]
Nc1ccccc1-c1ccc(C(O)CCC(=O)O)cc1 (centres unmarked) [B, cyclohexylamine salt of 4-(2'-amino-4-biphenylyl)-4-hydroxy-butyric acid] | 1340 mg/kg | 66 mg/kg | –
O=C(O)CCCc1ccc(-c2ccccc2[N+](=O)[O-])cc1 [C, cyclohexylamine salt of 4-(2'-nitro-4-biphenylyl)-butyric acid] | > 1000 mg/kg | 66 mg/kg | 3 out of 10
O=C(O)CCC(O)c1ccc(-c2ccccc2[N+](=O)[O-])cc1 (centres unmarked) [A, cyclohexylamine salt of 4-(2'-nitro-4-biphenylyl)-4-hydroxy-butyric acid] | > 500 mg/kg | 30 mg/kg | 0 out of 5
O=C(O)CCCc1ccc(-c2ccc([N+](=O)[O-])cc2)cc1 [G, cyclohexylamine salt of 4-(4'-nitro-4-biphenylyl)-butyric acid] | > 1000 mg/kg | 30 mg/kg | 0 out of 10
O=C(O)CCCc1ccc(-c2ccccc2F)cc1 [D, cyclohexylamine salt of 4-(2'-fluoro-4-biphenylyl)-butyric acid] | > 500 mg/kg | 37 mg/kg | 0 out of 10
O=C(O)CCC(O)c1ccc(-c2ccccc2Cl)cc1 (centres unmarked) [Compound E, cyclohexylamine salt of 4-(2'-chloro-4-biphenylyl)-4-hydroxy-butyric acid] | > 1000 mg/kg | 27 mg/kg | 1 out of 10
O=C(O)CCCc1ccc(-c2ccccc2Cl)cc1 [F, cyclohexylamine salt of 4-(2'-chloro-4-biphenylyl)-butyric acid] | > 1000 mg/kg | 50 mg/kg | 2 out of 10

From patent US4021479A, “Derivatives of 4-(4-biphenylyl)-butyric acid” (Boehringer Ingelheim GmbH, priority 1971, dated 1977)
